# Test results taken from patent US11572590B2, “Methods for evaluating tumor cell spheroids using 3D microfluidic cell culture device” (Dana-Farber Cancer Institute, Inc., priority 2017, dated 2023).
# Read-outs that look alike come from different tables or passages of the source.
# Assays:
# Test in all cases: SelectScreen Kinase Profiling, single point inhibition and IC50 for off-target kinases
# Format in all cases: biochemical
# off-target kinases [1] = molecular target: off-target kinases (Homo sapiens, UniProt O43353); details: RIPK2, LanthaScreen Binding
# off-target kinases [2] = molecular target: off-target kinases (Homo sapiens, UniProt P00533, DEL746-750); details: EGFR (ErbB1) d746-750; mutant y; LanthaScreen Binding
# off-target kinases [3] = molecular target: off-target kinases (Homo sapiens, UniProt P15056); details: BRAF; for inhibition: LanthaScreen Binding
# Chain of off-target kinases (Homo sapiens, UniProt P15056) (P15056 whole entry): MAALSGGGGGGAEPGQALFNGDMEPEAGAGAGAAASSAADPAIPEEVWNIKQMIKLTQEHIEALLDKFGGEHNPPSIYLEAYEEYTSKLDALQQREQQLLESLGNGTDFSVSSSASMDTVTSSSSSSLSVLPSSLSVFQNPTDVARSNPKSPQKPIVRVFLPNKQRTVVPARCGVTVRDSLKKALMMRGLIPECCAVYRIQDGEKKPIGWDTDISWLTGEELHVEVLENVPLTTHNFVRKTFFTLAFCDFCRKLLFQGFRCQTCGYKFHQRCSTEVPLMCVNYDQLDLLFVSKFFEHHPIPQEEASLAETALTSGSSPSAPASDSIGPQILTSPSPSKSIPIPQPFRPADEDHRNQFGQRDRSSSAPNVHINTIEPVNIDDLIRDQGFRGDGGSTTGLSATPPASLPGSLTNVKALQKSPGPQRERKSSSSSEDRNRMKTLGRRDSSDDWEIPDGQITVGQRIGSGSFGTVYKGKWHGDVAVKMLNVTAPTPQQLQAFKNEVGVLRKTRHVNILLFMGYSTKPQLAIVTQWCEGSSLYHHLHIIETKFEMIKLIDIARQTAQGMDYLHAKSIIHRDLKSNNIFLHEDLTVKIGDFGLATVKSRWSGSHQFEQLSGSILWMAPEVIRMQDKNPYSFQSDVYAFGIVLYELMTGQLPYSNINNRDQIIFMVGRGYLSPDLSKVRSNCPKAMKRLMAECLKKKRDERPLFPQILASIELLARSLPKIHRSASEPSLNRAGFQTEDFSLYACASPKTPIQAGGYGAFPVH
# off-target kinases [4] = molecular target: off-target kinases (Homo sapiens, UniProt P42336); details: PIK3CA/PIK3R1 (p110 alpha/p85 alpha); Cmpd1 1000 μM; ATP Km app; Adapta
# off-target kinases [5] = molecular target: off-target kinases (Homo sapiens, UniProt P54756); details: EPHA5, ZLYTE, ATP Km app
# off-target kinases [6] = molecular target: off-target kinases (Homo sapiens, UniProt Q04912); details: MST1R (RON), ZLYTE, ATP Km app
# off-target kinases [7] = molecular target: off-target kinases (Homo sapiens, UniProt Q15303); details: ERBB4 (HER4), ZLYTE, ATP Km app
# off-target kinases [8] = molecular target: off-target kinases (Homo sapiens, UniProt Q5S007); details: ATP Km app, Adapta
# Chain of off-target kinases (Homo sapiens, UniProt Q5S007) (Q5S007 whole entry): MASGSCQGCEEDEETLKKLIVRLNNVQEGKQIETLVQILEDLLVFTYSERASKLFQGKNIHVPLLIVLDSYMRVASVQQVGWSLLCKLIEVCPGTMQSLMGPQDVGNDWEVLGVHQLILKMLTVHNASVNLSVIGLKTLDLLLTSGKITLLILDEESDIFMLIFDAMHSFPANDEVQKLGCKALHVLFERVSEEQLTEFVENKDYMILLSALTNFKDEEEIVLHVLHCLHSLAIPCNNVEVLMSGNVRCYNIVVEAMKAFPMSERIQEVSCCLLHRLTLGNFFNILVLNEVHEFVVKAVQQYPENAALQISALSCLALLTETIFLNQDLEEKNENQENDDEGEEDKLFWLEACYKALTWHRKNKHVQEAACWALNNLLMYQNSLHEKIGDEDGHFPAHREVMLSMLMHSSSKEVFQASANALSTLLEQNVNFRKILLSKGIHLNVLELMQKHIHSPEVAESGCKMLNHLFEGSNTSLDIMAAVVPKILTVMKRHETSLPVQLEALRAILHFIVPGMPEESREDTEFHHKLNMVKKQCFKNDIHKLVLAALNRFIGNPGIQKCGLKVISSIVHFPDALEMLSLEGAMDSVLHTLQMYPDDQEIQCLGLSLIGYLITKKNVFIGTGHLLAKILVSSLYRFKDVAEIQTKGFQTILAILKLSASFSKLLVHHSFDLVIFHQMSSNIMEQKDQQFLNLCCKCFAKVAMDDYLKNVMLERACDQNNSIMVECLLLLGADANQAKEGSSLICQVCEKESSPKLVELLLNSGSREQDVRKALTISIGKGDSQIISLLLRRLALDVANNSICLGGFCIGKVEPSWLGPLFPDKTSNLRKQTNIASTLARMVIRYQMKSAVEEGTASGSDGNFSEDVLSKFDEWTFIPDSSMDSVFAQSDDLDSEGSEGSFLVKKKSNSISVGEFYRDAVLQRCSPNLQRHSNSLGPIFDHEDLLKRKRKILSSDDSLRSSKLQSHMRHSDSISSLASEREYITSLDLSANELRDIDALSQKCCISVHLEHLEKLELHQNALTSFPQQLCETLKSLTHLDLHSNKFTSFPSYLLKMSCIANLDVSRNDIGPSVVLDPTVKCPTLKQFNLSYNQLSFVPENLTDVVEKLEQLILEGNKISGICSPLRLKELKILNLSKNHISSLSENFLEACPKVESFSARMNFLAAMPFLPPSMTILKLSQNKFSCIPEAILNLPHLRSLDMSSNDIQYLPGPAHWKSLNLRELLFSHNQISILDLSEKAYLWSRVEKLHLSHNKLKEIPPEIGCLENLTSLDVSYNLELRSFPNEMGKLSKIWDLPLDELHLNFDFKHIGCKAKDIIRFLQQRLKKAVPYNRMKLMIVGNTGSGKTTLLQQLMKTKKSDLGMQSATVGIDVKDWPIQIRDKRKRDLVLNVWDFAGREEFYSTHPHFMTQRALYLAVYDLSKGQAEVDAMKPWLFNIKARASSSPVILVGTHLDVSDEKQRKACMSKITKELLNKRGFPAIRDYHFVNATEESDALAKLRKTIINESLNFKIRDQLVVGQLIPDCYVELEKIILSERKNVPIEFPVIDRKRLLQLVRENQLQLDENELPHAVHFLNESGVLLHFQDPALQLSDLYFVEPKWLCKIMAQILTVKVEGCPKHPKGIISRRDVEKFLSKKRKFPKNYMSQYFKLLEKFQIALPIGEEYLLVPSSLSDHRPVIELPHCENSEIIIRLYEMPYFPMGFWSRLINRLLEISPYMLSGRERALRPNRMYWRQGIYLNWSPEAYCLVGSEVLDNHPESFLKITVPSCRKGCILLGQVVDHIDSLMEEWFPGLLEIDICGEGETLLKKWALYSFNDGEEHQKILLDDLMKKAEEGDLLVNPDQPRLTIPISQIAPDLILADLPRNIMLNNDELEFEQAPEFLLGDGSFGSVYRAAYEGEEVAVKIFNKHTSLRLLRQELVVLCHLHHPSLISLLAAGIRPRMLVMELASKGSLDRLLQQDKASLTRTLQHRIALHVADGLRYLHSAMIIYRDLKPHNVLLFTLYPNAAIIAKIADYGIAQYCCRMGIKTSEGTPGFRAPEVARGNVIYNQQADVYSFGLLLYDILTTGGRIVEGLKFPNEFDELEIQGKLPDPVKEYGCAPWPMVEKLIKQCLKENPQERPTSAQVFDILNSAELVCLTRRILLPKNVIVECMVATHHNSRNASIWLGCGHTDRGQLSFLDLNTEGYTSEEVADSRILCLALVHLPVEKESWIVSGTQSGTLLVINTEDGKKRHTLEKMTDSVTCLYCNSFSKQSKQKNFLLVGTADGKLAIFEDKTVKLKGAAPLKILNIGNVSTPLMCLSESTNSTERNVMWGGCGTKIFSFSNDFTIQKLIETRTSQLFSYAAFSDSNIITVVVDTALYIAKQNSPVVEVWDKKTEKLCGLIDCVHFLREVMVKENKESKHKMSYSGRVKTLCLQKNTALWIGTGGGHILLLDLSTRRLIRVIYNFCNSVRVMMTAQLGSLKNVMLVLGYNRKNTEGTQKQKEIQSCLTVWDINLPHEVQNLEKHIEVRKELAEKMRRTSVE
# off-target kinases [9] = molecular target: off-target kinases (Homo sapiens, UniProt Q5VT25); details: CDC42 BPA (MRCKA), ZLYTE, ATP Km app
# Chain of off-target kinases (Homo sapiens, UniProt Q5VT25) (Q5VT25 whole entry): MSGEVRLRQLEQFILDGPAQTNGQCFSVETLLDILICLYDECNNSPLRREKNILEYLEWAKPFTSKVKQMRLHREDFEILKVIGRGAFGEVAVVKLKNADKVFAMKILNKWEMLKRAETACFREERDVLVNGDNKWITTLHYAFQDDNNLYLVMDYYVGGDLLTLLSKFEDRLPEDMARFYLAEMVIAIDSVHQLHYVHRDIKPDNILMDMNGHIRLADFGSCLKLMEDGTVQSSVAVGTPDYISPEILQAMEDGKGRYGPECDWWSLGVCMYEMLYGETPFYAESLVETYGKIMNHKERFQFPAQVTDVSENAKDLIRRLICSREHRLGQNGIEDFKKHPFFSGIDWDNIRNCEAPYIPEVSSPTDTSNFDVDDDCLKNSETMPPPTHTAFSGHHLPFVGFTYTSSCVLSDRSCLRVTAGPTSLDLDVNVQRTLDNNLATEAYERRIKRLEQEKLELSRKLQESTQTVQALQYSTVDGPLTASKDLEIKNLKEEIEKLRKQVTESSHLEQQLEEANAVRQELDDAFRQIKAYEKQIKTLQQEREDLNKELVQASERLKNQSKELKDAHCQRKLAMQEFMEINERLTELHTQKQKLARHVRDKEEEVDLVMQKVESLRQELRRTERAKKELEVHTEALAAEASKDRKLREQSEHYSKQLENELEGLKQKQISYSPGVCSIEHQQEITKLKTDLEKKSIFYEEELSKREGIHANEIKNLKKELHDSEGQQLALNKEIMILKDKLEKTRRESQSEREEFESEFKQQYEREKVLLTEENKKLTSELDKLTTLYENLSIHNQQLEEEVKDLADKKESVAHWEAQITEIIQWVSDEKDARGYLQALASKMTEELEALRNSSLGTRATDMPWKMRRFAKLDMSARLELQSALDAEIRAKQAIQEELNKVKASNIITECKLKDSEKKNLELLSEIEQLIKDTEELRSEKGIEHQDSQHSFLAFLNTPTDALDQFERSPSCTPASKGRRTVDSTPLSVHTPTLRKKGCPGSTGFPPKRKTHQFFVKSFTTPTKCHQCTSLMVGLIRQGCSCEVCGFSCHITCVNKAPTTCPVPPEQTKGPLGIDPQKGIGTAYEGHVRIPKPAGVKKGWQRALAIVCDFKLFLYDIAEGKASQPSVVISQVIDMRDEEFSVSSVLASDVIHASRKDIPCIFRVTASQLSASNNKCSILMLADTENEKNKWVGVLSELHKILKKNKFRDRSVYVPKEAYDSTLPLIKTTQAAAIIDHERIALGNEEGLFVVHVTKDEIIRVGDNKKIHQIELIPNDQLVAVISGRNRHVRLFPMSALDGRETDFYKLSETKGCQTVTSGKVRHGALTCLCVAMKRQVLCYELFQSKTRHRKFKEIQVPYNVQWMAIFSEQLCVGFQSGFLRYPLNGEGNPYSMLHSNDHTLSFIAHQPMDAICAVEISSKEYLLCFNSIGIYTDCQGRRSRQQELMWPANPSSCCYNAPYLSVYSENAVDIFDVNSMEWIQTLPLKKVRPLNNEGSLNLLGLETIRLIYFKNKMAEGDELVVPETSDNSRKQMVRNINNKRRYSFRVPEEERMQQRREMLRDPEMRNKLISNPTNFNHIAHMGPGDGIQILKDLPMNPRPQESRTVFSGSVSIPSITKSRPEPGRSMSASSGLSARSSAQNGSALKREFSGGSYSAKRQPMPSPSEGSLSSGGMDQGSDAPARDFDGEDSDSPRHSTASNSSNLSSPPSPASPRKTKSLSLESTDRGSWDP
# off-target kinases [10] = molecular target: T1, off-target kinases (Homo sapiens, UniProt Q9UPZ9); details: ICK, LanthaScreen Binding
# T1 sequence (Q9UPZ9 1-632): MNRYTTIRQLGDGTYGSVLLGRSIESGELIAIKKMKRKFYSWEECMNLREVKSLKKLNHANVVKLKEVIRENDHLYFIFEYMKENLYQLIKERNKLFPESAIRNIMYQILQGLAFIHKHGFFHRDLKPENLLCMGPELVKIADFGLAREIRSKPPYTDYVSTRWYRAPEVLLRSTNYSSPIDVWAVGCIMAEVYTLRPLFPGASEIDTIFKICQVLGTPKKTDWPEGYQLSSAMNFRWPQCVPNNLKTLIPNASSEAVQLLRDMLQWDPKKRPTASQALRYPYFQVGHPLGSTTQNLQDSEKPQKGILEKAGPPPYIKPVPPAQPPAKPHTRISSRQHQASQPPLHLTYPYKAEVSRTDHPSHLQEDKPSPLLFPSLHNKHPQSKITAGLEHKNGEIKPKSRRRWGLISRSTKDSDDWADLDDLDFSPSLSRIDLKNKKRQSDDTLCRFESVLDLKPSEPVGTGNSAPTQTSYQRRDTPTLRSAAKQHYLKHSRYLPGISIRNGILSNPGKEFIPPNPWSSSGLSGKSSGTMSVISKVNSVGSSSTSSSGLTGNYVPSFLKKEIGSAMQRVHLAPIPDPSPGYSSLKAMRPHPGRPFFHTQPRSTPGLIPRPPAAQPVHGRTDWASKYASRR
structure (smiles),measurement,setting,value
"N#Cc1cc(-c2ncnc(Nc3ccc(N4CCN(C5COC5)CC4)cc3)n2)ccc1OC1CCOCC1 [Compound 1, 5-(4-((4-(4-(oxetan-3-yl)piperazin-1-yl)phenyl)amino)-1,3,5-triazin-2-yl)-2-((tetrahydro-2H-pyran-4-yl)oxy)benzonitrile]",inhibition,off-target kinases [1]; read-out: % Inhibition 1,84%
same,inhibition,off-target kinases [1]; read-out: % Inhibition 2,86%
same,inhibition,off-target kinases [1]; read-out: % Inhibition Avg,85%
same,inhibition,off-target kinases [2],14%
same,% Inhibition 1,"off-target kinases [3]; Cmpd1 1000 μM, ATP 100, ZLYTE",−18%
same,% Inhibition 2,"off-target kinases [3]; Cmpd1 1000 μM, ATP 100, ZLYTE",−10%
same,% Inhibition Avg,"off-target kinases [3]; Cmpd1 1000 μM, ATP 100, ZLYTE",−14%
same,inhibition,off-target kinases [3]; read-out: % Inhibition 1,44%
same,inhibition,off-target kinases [3]; read-out: % Inhibition 2,47%
same,inhibition,off-target kinases [3]; read-out: % Inhibition Avg,46%
same,% Inhibition 1,off-target kinases [4],−5%
same,% Inhibition 2,off-target kinases [4],−4%
same,% Inhibition Avg,off-target kinases [4],−5%
same,inhibition,off-target kinases [5]; read-out: % Inhibition 1,3%
same,inhibition,off-target kinases [5]; read-out: % Inhibition 2,4%
same,inhibition,off-target kinases [5]; read-out: % Inhibition Avg,3%
same,inhibition,off-target kinases [6]; read-out: % Inhibition 1,38%
same,inhibition,off-target kinases [6]; read-out: % Inhibition 2,38%
same,inhibition,off-target kinases [6]; read-out: % Inhibition Avg,38%
same,inhibition,off-target kinases [7]; read-out: % Inhibition 1,8%
same,inhibition,off-target kinases [7]; read-out: % Inhibition 2,5%
same,inhibition,off-target kinases [7]; read-out: % Inhibition Avg,6%
same,inhibition,"off-target kinases [8]; LRRK2, read-out: % Inhibition 1",99%
same,inhibition,"off-target kinases [8]; LRRK2, read-out: % Inhibition 2",100%
same,inhibition,"off-target kinases [8]; LRRK2, read-out: % Inhibition Avg",100%
same,inhibition,"off-target kinases [8]; LRRK2 FL, read-out: % Inhibition 1",98%
same,inhibition,"off-target kinases [8]; LRRK2 FL, read-out: % Inhibition 2",98%
same,inhibition,"off-target kinases [8]; LRRK2 FL, read-out: % Inhibition Avg",98%
same,inhibition,off-target kinases [9]; read-out: % Inhibition 1,4%
same,inhibition,off-target kinases [9]; read-out: % Inhibition 2,4%
same,inhibition,off-target kinases [9]; read-out: % Inhibition Avg,4%
same,inhibition,off-target kinases [10]; read-out: % Inhibition 1,22%
same,inhibition,off-target kinases [10]; read-out: % Inhibition 2,22%
same,inhibition,off-target kinases [10]; read-out: % Inhibition Avg,22%
